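Each compound was tested at five concentrations against cells in 96-well plates for 48 hours. GI50 marks 50% less growth.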 Calls of active or inactive are those of the source. No stated cut-off is given here; in the data, active = GI50 up to about 1.1 µM and inactive = higher.
Tests used:
Assay in all cases: NCI anticancer screen, dose series, 48 h
786-0 = test system: 786-0
A498 = test system: A498
BT-549 = test system: BT-549
CAKI-1 = test system: CAKI-1
DU-145 = test system: DU-145
HCT-116 = test system: HCT-116
HOP-62 = test system: HOP-62
K562 = test system: K562
LOX IMVI = test system: LOX IMVI
M14 = test system: M14
OVCAR-5 = test system: OVCAR-5
PC-3 = test system: PC-3
SF-539 = test system: SF-539
SN12C = test system: SN12C
SNB-19 = test system: SNB-19
SNB-75 = test system: SNB-75
SW-620 = test system: SW-620
UACC-257 = test system: UACC-257
KM12 = test system: KM12

| SMILES | GI50 (786-0) | GI50 (A498) | GI50 (BT-549) | GI50 (CAKI-1) | GI50 (DU-145) | GI50 (HCT-116) | GI50 (HOP-62) | GI50 (K562) | GI50 (LOX IMVI) | GI50 (M14) | GI50 (OVCAR-5) | GI50 (PC-3) | GI50 (SF-539) | GI50 (SN12C) | GI50 (SNB-19) | GI50 (SNB-75) | GI50 (SW-620) | GI50 (UACC-257) | GI50 (KM12) |
| --- | --- | --- | --- | --- | --- | --- | --- | --- | --- | --- | --- | --- | --- | --- | --- | --- | --- | --- | --- |
| CCOc1cc(-c2nc3ccccn3c2/N=C/c2cc(Br)ccc2O)ccc1O | 25.1 µM (inactive) | 31.6 µM (inactive) | 29.6 µM (inactive) | 67.1 µM (inactive) | 12.5 µM (inactive) | 30.8 µM (inactive) | 20.3 µM (inactive) | 24.2 µM (inactive) | 23.2 µM (inactive) | 36.1 µM (inactive) | 73.5 µM (inactive) | 18.8 µM (inactive) | 29.6 µM (inactive) | 31.3 µM (inactive) | 21.3 µM (inactive) | 5.62 µM (inactive) | 65 µM (inactive) | 18.1 µM (inactive) | – |
| COC(=O)CNC(=O)CNC(=O)CSc1nnc(COc2ccc(Cl)cc2)n1-c1ccccc1 | > 100 µM (inactive) | > 100 µM (inactive) | 24.4 µM (inactive) | 17.6 µM (inactive) | > 100 µM (inactive) | 38.7 µM (inactive) | > 100 µM (inactive) | 30.1 µM (inactive) | 23.2 µM (inactive) | 37.4 µM (inactive) | > 100 µM (inactive) | 52.7 µM (inactive) | > 100 µM (inactive) | > 100 µM (inactive) | 86.3 µM (inactive) | 25.4 µM (inactive) | 68.1 µM (inactive) | 19.1 µM (inactive) | 21.3 µM (inactive) |
| CCOC(=O)C(=NN(C)c1ncccc1N)C(=O)OCC | 29.6 µM (inactive) | 39.8 µM (inactive) | > 100 µM (inactive) | 33.3 µM (inactive) | > 100 µM (inactive) | 26.4 µM (inactive) | > 100 µM (inactive) | 25.4 µM (inactive) | 18.3 µM (inactive) | 32.5 µM (inactive) | – | 62.5 µM (inactive) | 22.9 µM (inactive) | 24.7 µM (inactive) | > 100 µM (inactive) | > 100 µM (inactive) | 27.6 µM (inactive) | 24.4 µM (inactive) | > 100 µM (inactive) |
| O=C(O)CP(=O)(O)O | > 100 µM (inactive) | > 100 µM (inactive) | > 100 µM (inactive) | > 100 µM (inactive) | > 100 µM (inactive) | > 100 µM (inactive) | > 100 µM (inactive) | > 100 µM (inactive) | > 100 µM (inactive) | > 100 µM (inactive) | > 100 µM (inactive) | > 100 µM (inactive) | > 100 µM (inactive) | > 100 µM (inactive) | > 100 µM (inactive) | > 100 µM (inactive) | > 100 µM (inactive) | > 100 µM (inactive) | > 100 µM (inactive) |
| COC(=O)/C=C/c1ccc2nncnc2c1.COC(=O)/C=C\c1ccc2nncnc2c1 | > 100 µM (inactive) | 71.8 µM (inactive) | 60.8 µM (inactive) | > 100 µM (inactive) | 28.7 µM (inactive) | 81.5 µM (inactive) | 70.5 µM (inactive) | 43 µM (inactive) | 33.9 µM (inactive) | 21 µM (inactive) | > 100 µM (inactive) | 34.7 µM (inactive) | 31.9 µM (inactive) | > 100 µM (inactive) | 57.4 µM (inactive) | 18.7 µM (inactive) | 87.9 µM (inactive) | 16.9 µM (inactive) | 31.6 µM (inactive) |
| CC(C)C(C/C=C1/CC(CO)(COC(=O)C2CCCCC2)OC1=O)C(C)C (configuration not stated) | 12.4 µM (inactive) | 20.4 µM (inactive) | 25.2 µM (inactive) | 15.2 µM (inactive) | 13.2 µM (inactive) | 17.5 µM (inactive) | 11.7 µM (inactive) | 6.79 µM (inactive) | 14.2 µM (inactive) | 17.3 µM (inactive) | 18.7 µM (inactive) | 17.1 µM (inactive) | 14.2 µM (inactive) | 16.8 µM (inactive) | 15 µM (inactive) | 13.8 µM (inactive) | 22.3 µM (inactive) | 26.9 µM (inactive) | 21.1 µM (inactive) |
| O=C(CCc1ccc(O)c(O)c1)NCCc1cc(O)cc(O)c1 | > 100 µM (inactive) | > 100 µM (inactive) | > 100 µM (inactive) | > 100 µM (inactive) | > 100 µM (inactive) | > 100 µM (inactive) | > 100 µM (inactive) | 25.7 µM (inactive) | 46 µM (inactive) | > 100 µM (inactive) | > 100 µM (inactive) | > 100 µM (inactive) | > 100 µM (inactive) | > 100 µM (inactive) | > 100 µM (inactive) | > 100 µM (inactive) | > 100 µM (inactive) | > 100 µM (inactive) | > 100 µM (inactive) |
| NC(CC(=O)O)(Cc1ccccc1)C(=O)O (configuration not stated) | > 100 µM (inactive) | > 100 µM (inactive) | > 100 µM (inactive) | > 100 µM (inactive) | > 100 µM (inactive) | > 100 µM (inactive) | > 100 µM (inactive) | > 100 µM (inactive) | > 100 µM (inactive) | > 100 µM (inactive) | > 100 µM (inactive) | > 100 µM (inactive) | > 100 µM (inactive) | > 100 µM (inactive) | > 100 µM (inactive) | > 100 µM (inactive) | > 100 µM (inactive) | > 100 µM (inactive) | > 100 µM (inactive) |
| COc1ccc(CCNC(=O)Cc2ccccc2CCO)cc1OC | > 100 µM (inactive) | > 100 µM (inactive) | > 100 µM (inactive) | > 100 µM (inactive) | > 100 µM (inactive) | > 100 µM (inactive) | > 100 µM (inactive) | > 100 µM (inactive) | – | > 100 µM (inactive) | > 100 µM (inactive) | > 100 µM (inactive) | > 100 µM (inactive) | > 100 µM (inactive) | 27.4 µM (inactive) | > 100 µM (inactive) | > 100 µM (inactive) | > 100 µM (inactive) | > 100 µM (inactive) |
| O=C(c1cc2ccccc2cc1O)N1CCCCC1 | 59.4 µM (inactive) | 15.2 µM (inactive) | 35.2 µM (inactive) | 50.7 µM (inactive) | 64.1 µM (inactive) | 39.6 µM (inactive) | 27.4 µM (inactive) | 21.6 µM (inactive) | 55.1 µM (inactive) | 18.1 µM (inactive) | – | 29.8 µM (inactive) | 37.3 µM (inactive) | – | 28.5 µM (inactive) | 31.5 µM (inactive) | 48 µM (inactive) | 53 µM (inactive) | 33.6 µM (inactive) |
| O=C(c1ccsc1)c1nccc2c1cnc1ccccc12 | 97.7 µM (inactive) | 75 µM (inactive) | > 100 µM (inactive) | > 100 µM (inactive) | > 100 µM (inactive) | 62.1 µM (inactive) | 25.5 µM (inactive) | – | > 100 µM (inactive) | > 100 µM (inactive) | 49.8 µM (inactive) | > 100 µM (inactive) | > 100 µM (inactive) | > 100 µM (inactive) | 53.5 µM (inactive) | 30.5 µM (inactive) | > 100 µM (inactive) | 45.2 µM (inactive) | > 100 µM (inactive) |
| COC(=O)C(Cc1cn(C(C)=O)c2ccccc12)P(=O)(OC)OC (configuration not stated) | – | > 100 µM (inactive) | > 100 µM (inactive) | > 100 µM (inactive) | > 100 µM (inactive) | > 100 µM (inactive) | – | > 100 µM (inactive) | – | > 100 µM (inactive) | 95.3 µM (inactive) | > 100 µM (inactive) | > 100 µM (inactive) | > 100 µM (inactive) | > 100 µM (inactive) | 60.3 µM (inactive) | > 100 µM (inactive) | > 100 µM (inactive) | > 100 µM (inactive) |
| CCOC(=O)C(CO)c1nc2c([nH]c1=O)c(=O)n(C)c(=O)n2C (configuration not stated) | > 100 µM (inactive) | 0.608 µM (active) | > 100 µM (inactive) | > 100 µM (inactive) | > 100 µM (inactive) | > 100 µM (inactive) | > 100 µM (inactive) | > 100 µM (inactive) | > 100 µM (inactive) | > 100 µM (inactive) | > 100 µM (inactive) | > 100 µM (inactive) | > 100 µM (inactive) | > 100 µM (inactive) | > 100 µM (inactive) | – | > 100 µM (inactive) | > 100 µM (inactive) | > 100 µM (inactive) |
| COC(=O)Nc1nc2cc(C(=O)c3ccc[nH]3)ccc2[nH]1 | 1.69 µM (inactive) | 3.04 µM (inactive) | > 100 µM (inactive) | 0.332 µM (active) | 1.82 µM (inactive) | 0.267 µM (active) | 1.44 µM (inactive) | 0.387 µM (active) | 0.462 µM (active) | 0.571 µM (active) | > 100 µM (inactive) | 0.348 µM (active) | 2.4 µM (inactive) | 1.15 µM (inactive) | 1.19 µM (inactive) | 0.235 µM (active) | 0.359 µM (active) | – | 0.49 µM (active) |
| Cc1cc(C)c2c(c1)CC1(Cc3c(C)cc(C)cc3C1=O)C2=O (configuration not stated) | > 100 µM (inactive) | > 100 µM (inactive) | > 100 µM (inactive) | > 100 µM (inactive) | > 100 µM (inactive) | – | – | > 100 µM (inactive) | > 100 µM (inactive) | > 100 µM (inactive) | > 100 µM (inactive) | > 100 µM (inactive) | 35.8 µM (inactive) | > 100 µM (inactive) | > 100 µM (inactive) | > 100 µM (inactive) | > 100 µM (inactive) | > 100 µM (inactive) | > 100 µM (inactive) |

— ChEMBL document CHEMBL1201862, “PubChem BioAssay data set” (2004)
